Literature values, collected in patent US20100137787A1, “Delivery devices for modulating inflammation” (Searete LLC, a limited liability corporation of the State …, priority 2008, published 2010).

Tests used:
Toll-like receptor 4 = Toll-like receptor 4 (Homo sapiens, UniProt O00206)
[1] = single agent, infused at 400 mg over one hour

Toll-like receptor 4, sequence (O00206 24-839, species assumed): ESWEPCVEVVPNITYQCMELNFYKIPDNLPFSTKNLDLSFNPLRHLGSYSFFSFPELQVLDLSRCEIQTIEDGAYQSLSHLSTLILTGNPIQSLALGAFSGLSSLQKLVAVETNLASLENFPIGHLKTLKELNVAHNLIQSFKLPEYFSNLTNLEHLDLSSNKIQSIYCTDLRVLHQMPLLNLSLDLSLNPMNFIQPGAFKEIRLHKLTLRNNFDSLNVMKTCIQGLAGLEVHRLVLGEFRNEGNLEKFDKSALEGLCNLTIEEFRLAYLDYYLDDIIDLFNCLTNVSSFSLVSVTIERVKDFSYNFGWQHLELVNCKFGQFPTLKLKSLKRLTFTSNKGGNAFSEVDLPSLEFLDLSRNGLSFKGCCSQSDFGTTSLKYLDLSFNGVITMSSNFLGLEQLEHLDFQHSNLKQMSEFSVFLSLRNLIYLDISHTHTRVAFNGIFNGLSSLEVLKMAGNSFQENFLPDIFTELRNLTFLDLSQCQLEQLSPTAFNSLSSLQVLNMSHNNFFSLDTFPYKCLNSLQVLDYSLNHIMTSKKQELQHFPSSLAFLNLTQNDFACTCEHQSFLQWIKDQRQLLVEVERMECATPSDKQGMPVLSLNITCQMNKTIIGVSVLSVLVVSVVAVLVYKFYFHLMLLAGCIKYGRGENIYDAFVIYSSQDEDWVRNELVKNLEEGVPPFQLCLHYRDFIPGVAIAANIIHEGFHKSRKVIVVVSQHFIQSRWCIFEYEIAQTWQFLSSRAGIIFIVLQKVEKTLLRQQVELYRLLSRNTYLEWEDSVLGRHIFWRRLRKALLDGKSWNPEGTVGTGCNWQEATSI

## Cl.Cl.Nc1ccccc1Oc1ccc2c(N)nsc2c1 [Example M62812, 3-amino-6-(2-aminophenoxy)-1,2-benzisothiazole dihydrochloride]
Toll-like receptor 4
  inhibitor of Toll-like receptor 4: inhibitor of Toll-like receptor 4

## CCN(CC)C(=S)SSC(=S)N(CC)CC [disulfiram, 1-(diethylthiocarbamoyldisulfanyl)-N,N-diethyl-methanethioamide]
Aldehyde dehydrogenase
  inhibition of aldehyde dehydrogenase: inhibits
  toxicity accompanying aldehyde dehydrogenase inhibition: without toxicity

## CCN(CC)CCCC(C)Nc1ccnc2cc(Cl)ccc12.O=P(O)(O)O.O=P(O)(O)O (stereo not shown) [chloroquine phosphate, 7-chloro-4-[[4-(diethylamino)-1-methylbutyl]amino]quinoline phosphate (1:2)]
[1]
  tolerability of infusion: without complication
